pIC50: −log10 of the molar value.
Assays:
[1] = tested on: HIV; assay: microbe, parasite or virus in culture; assay type: cell-based
[2] = tested on: HIV-1IIIB; assay: Two-drug combination antiviral assay in CEM cells (CPE), MacSynergy II; assay type: cell-based; conditions: for Antagonism Volume, Result 1 / Antagonism Volume, Result 2 / Antagonism Volume, Result 3 / Mean Antagonism Volume (n = 3) / Mean Synergy Volume (n = 3) / Synergy Volume, Result 1 / Synergy Volume, Result 2 / Synergy Volume, Result 3: in combination with CMX157, CEM-SS cells, 95% confidence; for Interpretation of Antiviral Results (MacSynergy): two-drug combination (with CMX157; control d4T/RBV), CEM-SS cells

## Nc1ccn([C@@H]2CS[C@H](CO)O2)c(=O)n1 [3TC, (2R, 5S, cis)-4-amino-1-(2-hydroxymethyl-1,3-oxathiolan-5-yl)-(1H)-pyrimidin-2-one]
[1]; Human immunodeficiency virus 1, PANEL 1, WT
  pIC50: 5.49
[1]; Human immunodeficiency virus 1, PANEL 2, WT
  pIC50: 5.35
[1]; Human immunodeficiency virus 1, PANEL 3, 6 TAMs, no 184
  pIC50: 4.86
[1]; Human immunodeficiency virus 1, PANEL 6, 6 TAMs + 184
  pIC50: < 3.52
[1]; Human immunodeficiency virus 1, PANEL 7, 184V
  pIC50: < 3.52
[1]; Human immunodeficiency virus 1, PANEL 9, 69ins, no 184
  pIC50: 4.34
[1]; Human immunodeficiency virus 1, PANEL 12, 69ins + 184
  pIC50: < 3.52
[1]; Human immunodeficiency virus 1, PANEL 14, 65R, no 184
  pIC50: 4.15
[1]; Human immunodeficiency virus 1, PANEL 15, 65R + 184V
  pIC50: < 3.52
[1]; Human immunodeficiency virus 1, PANEL 17, L74V
  pIC50: 5.16
[1]; Human immunodeficiency virus 1, PANEL 19, L74V + M184V
  pIC50: < 3.52
[1]; Human immunodeficiency virus 1, PANEL 26, 151M, no 184
  pIC50: 4.05
[1]; Human immunodeficiency virus 1, PANEL 28, 151M + 184
  pIC50: < 3.52
[1]; Human immunodeficiency virus 1, PANEL 29, L74V − SDM
  pIC50: 5.21
[1]; Human immunodeficiency virus 1, PANEL 30, M184V − SDM
  pIC50: < 3.52
[1]; Human immunodeficiency virus 1, PANEL 31, K65R − SDM
  pIC50: 4.36
[1]; Human immunodeficiency virus 1, PANEL 33, T215Y
  pIC50: 5.21
[1]; Human immunodeficiency virus 1, PANEL 34, T215Y + M184V
  pIC50: < 3.52
[1]; Human immunodeficiency virus 1, PANEL 35, M41L + T215Y
  pIC50: 5.12
[1]; Human immunodeficiency virus 1, PANEL 37, M41L + T215Y + M184V
  pIC50: < 3.52
[1]; Human immunodeficiency virus 1, PANEL 38, M41L + L210W + T215Y
  pIC50: 4.99
[1]; Human immunodeficiency virus 1, PANEL 39, M41L + L210W + T215Y
  pIC50: 5.23
[1]; Human immunodeficiency virus 1, PANEL 40, M41L + L210W + T215Y + M184V
  pIC50: < 3.52
[1]; Human immunodeficiency virus 1, PANEL 41, M41L + L210W + T215Y + M184V
  pIC50: < 3.52
[1]; Human immunodeficiency virus 1, PANEL 42, D67N + K70R
  pIC50: 5.09
[1]; Human immunodeficiency virus 1, PANEL 44, D67N + K70R + T215F + K219E + M184V
  pIC50: < 3.52
[1]; Human immunodeficiency virus 1, PANEL 45, L210W + T215Y
  pIC50: 5.14
[1]; Human immunodeficiency virus 1, PANEL 46, D67N + K70E
  pIC50: 4.97
[1]; Human immunodeficiency virus 1, PANEL 47, D67N + K70E + M184V
  pIC50: < 3.52
[1]; Human immunodeficiency virus 1, PANEL 48, K70E + M184V
  pIC50: < 3.52

## CC(C)CN(C[C@@H](O)[C@H](Cc1ccccc1)NC(=O)O[C@H]1CCOC1)S(=O)(=O)c1ccc(N)cc1 [Amprenavir (APV), amprenavir]
[2]
  Antagonism Volume, Result 1: 0 nM^2 %, μM^2 % or nMμM %
  Antagonism Volume, Result 2: 0 nM^2 %, μM^2 % or nMμM %
  Antagonism Volume, Result 3: 0 nM^2 %, μM^2 % or nMμM %
  Mean Antagonism Volume (n = 3): 0 nM^2 %, μM^2 % or nMμM %
  Mean Synergy Volume (n = 3): 51.4 nM^2 %, μM^2 % or nMμM %
  Synergy Volume, Result 1: 104 nM^2 %, μM^2 % or nMμM %
  Synergy Volume, Result 2: 43.1 nM^2 %, μM^2 % or nMμM %
  Synergy Volume, Result 3: 7.31 nM^2 %, μM^2 % or nMμM %
  Interpretation of Antiviral Results (MacSynergy): slightly synergistic

## COC(=O)N[C@H](C(=O)N[C@@H](Cc1ccccc1)[C@@H](O)CN(Cc1ccc(-c2ccccn2)cc1)NC(=O)[C@@H](NC(=O)OC)C(C)(C)C)C(C)(C)C [Atazanavir (ATV), atazanavir]
[2]
  Interpretation of Antiviral Results (MacSynergy): slightly synergistic

## CC(C)CN(C[C@@H](O)[C@H](Cc1ccccc1)NC(=O)O[C@H]1CO[C@H]2OCC[C@H]21)S(=O)(=O)c1ccc(N)cc1 [Darunavir (DRV), darunavir]
[2]
  Antagonism Volume, Result 1: 0 nM^2 %, μM^2 % or nMμM %
  Antagonism Volume, Result 2: −2.31 nM^2 %, μM^2 % or nMμM %
  Antagonism Volume, Result 3: 0 nM^2 %, μM^2 % or nMμM %
  Mean Antagonism Volume (n = 3): −0.54 nM^2 %, μM^2 % or nMμM %
  Mean Synergy Volume (n = 3): 43.2 nM^2 %, μM^2 % or nMμM %
  Synergy Volume, Result 1: 109 nM^2 %, μM^2 % or nMμM %
  Synergy Volume, Result 2: 11.5 nM^2 %, μM^2 % or nMμM %
  Synergy Volume, Result 3: 9.48 nM^2 %, μM^2 % or nMμM %

— patent US8993542B2, “Methods of treating viral infections” (priority 2008, dated 2015)
